Assay [1] addresses T1, Alcaligenes faecalis Penicillin G acylase, wild type (α subunit SEQ ID NO:27, β subunit SEQ ID NO:32) (Alcaligenes faecalis, UniProt O34142).
T1 construct: alpha 202 aa, beta 551 aa; likely recombinant, E. coli host
T1 sequence (O34142 27-228): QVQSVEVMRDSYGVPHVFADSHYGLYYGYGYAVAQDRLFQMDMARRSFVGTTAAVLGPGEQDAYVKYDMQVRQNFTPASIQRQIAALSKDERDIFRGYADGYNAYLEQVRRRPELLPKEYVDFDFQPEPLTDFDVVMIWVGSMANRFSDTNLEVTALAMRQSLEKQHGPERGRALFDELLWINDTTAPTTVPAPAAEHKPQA
T1 sequence (O34142 266-816): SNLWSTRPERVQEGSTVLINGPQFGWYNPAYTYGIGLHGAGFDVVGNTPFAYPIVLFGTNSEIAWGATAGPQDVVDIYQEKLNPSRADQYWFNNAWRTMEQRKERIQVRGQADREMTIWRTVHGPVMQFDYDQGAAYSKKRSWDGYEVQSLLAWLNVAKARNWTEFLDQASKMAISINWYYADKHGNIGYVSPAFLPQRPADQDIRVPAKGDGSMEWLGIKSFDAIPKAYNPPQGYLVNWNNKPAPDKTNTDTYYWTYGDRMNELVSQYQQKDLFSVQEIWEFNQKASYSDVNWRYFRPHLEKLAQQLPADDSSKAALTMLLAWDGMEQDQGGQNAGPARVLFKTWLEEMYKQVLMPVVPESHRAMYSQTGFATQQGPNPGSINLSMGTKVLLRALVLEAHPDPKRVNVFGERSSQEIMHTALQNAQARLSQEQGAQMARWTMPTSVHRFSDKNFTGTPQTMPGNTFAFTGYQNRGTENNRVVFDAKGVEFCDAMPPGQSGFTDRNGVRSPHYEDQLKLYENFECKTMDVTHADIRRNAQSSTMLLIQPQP
The experiment in a line: Deacylation kinetics and phenylacetic acid product inhibition, wild type PenG acylase. In kind it is biochemical. The following applies: wt AF; from progress curves of NIPAB deacylation, 25° C., 0.1 M NaH2PO4.H2O buffer pH 7.5; read-out: Ki Phenylacetic acid (inhibition constant, dissociation constant). How it is done: In order to determine enzymatic activity the acylases were incubated with substrate at room temperature in buffered solution. In case β-lactamase impurity was expected to be present in the enzyme preparations, 1.0 mM -lactamase inhibitor 6-bromo-penicillanic acid was added to the assay. The reactions were stopped by adding an excess PMSF. For some mutants which were less sensitive to PMSF inhibition, the reactions were stopped by adding 0.5 M HCl or 0.5 M acetic acid until the pH was between 3 and 4. When reactions were subsequently analysed by HPLC, the reactions were stopped by dilution with the correponding elution solvent (see table 1). […]
The composition of the reaction mixtures was determined by high-performanceliquid chromatography (HPLC)(table 1). Concentrations were determined by using standards of known concentration.
In a continuous assay Penicillin G acylase was assayed spectro-fotometrically with the chromogenic substrate NIPAB [6-nitro-3-phenylacetamido-benzoic acid]. The liberation of 3-amino-6-nitrobenzoic acid was monitored by measuring the extinction at 405 nm in a Kontron 610 kinetic spectrofotometer. […]
Initial rate measurements were performed with excess substrate over the enzyme. Catalytic parameters were derived from least-squares fitting of the measured initial rates plotted for various substrate concentrations according to the Michaelis-Menten equation. […]

For assay [2], the target named is T2, Alcaligenes faecalis Penicillin G acylase mutant B:I177S (Alcaligenes faecalis, UniProt O34142, I442S).
T2 construct: alpha 202 aa, beta 551 aa; recombinant, E. coli host
T2 sequence (O34142 27-228): T1 sequence (O34142 27-228)
T2 sequence (O34142 266-816 I442S): T1 sequence (O34142 266-816) with I177S
The experiment in a line: NIPAB kinetics and phenylacetic acid product inhibition, mutant B:I177S. The assay is classed as biochemical. Particulars: from progress curves of NIPAB deacylation, 25° C., 0.1 M NaH2PO4.H2O buffer pH 7.5, read-out: Ki Phenylacetic acid (inhibition constant, dissociation constant). The protocol: In a continuous assay Penicillin G acylase was assayed spectro-fotometrically with the chromogenic substrate NIPAB [6-nitro-3-phenylacetamido-benzoic acid]. The liberation of 3-amino-6-nitrobenzoic acid was monitored by measuring the extinction at 405 nm in a Kontron 610 kinetic spectrofotometer. Measuring maximal rate, the assays were performed at 25° C. using 20 mM NaH2 PO4.H2 O at pH 7.5 with 20 mM NIPAB and 100 μl enzym solution (at a proper dilution). Initial rate measurements were performed with varying concentration of NIPAB.
Initial rate measurements were performed with excess substrate over the enzyme. Catalytic parameters were derived from least-squares fitting of the measured initial rates plotted for various substrate concentrations according to the Michaelis-Menten equation.
The complete conversion of NIPAB was followed as a funtion of time at 20, 50 and 100 μM NIPAB by following the increase in absorbtion at 405 nm. Products of this conversion are phenylacetic acid and 3-amino-6-nitrobenzoic acid. The conversion was performed at 25° C. in 0.1 M NaH2 PO4.H2 O buffer pH 7.5. The progress curves of the deacylation of NIPAB could be fitted very well when product inhibition by phenylacetic acid was taken into account. […]

Structures are written as SMILES. Changes are numbered by the printed parent chain. pKi: −log10 of the molar value.

For `O=C(O)Cc1ccccc1` [phenylacetic acid], the pKi (as a rule, the negative decadic logarithm of the Ki, by convention in mol/L) in assay [1] was 4.96; in assay [2], 3.60.
